Source: a melting point compilation (Tetko et al.; mined from patent text by program, amines drawn as free bases though some values may be those of a salt)

| Structure (SMILES) | melting point [°C] |
| --- | --- |
| O=C(NC1CCCCC1)c1c(O)c2cc(F)ccc2n(Cc2ccccc2)c1=O | 130 to 134 |
| O=C(c1ccc(-c2ccsc2)cc1Cl)c1cccc2c1Nc1ncccc1CN2 | 125 to 130 |
| Cc1cc(CC(=O)NCc2cccc3c2C(=O)N(C2CCC(=O)NC2=O)C3=O)oc1C (configuration not stated) | 221 to 223 |
| CC(=O)OCCNc1ccc(Cl)cc1C(=O)c1ccccc1F | 48 to 55 |
| COC(=O)[C@H](Cc1c(Br)n(C(=O)OC(C)(C)C)c2cc(Br)c(OC)c(Br)c12)NC(C)=O | 126 to 128 |
| CN1CC=C(c2c[nH]c3ccc(O)cc23)CC1 | 182 to 185 |
| N#Cc1cn(-c2ccccn2)nc1-c1ccc([N+](=O)[O-])o1 | 207 to 208 |
| CSc1cccc(NC(=O)NCC(=O)N2[C@@H](C(=O)OC(C)(C)C)C[C@H](C(=O)O)[C@H]2c2ccccc2)c1 (racemic) | 130 |
| O=C(Nc1cc(C2CC2)n[nH]1)c1ccc[nH]1 | 207 to 209 |
| C=CCc1cc2c(c(CC=C)c1OC1CCCCO1)CCC(=O)N2CCC#N (configuration not stated) | 93 to 94 |
| COc1ccccc1N1CCN(CCCNC(=O)c2cccc3c(=O)c(C)c(C4CC4)oc23)CC1 | 139 to 141 |
| CCCCCCCCCCC1CN(C)C(=O)N(O)C1 (configuration not stated) | 63 to 64.5 |
| CS(=O)(=O)c1ccc(-c2cnn(Cc3ccccn3)c(=O)c2-c2ccc(F)cc2)cc1 | 182 to 184 |
| O=C1NC(=O)C(Cc2ccc(N3CCC(NC[C@H](O)c4csc(C(F)(F)F)n4)CC3)cc2)S1 (some centres not stated) | 108 to 113 |
| C=CCOC(=O)c1[nH]c2cc(Cl)cc(Cl)c2c1C=C1NC(=O)N(c2ccccc2)C1=O | > 250 |
| COC1CSC2=C(SC1)C(OC(=O)N1CCN(C)CC1)N(c1ccc3ccc(Cl)cc3n1)C2=O (configuration not stated) | 228 |
| OCCCNC(Cn1ccnc1)c1ccc(Cl)cc1Cl (configuration not stated) | 77 to 79 |
| CCCCc1[nH]c2ccc(OC)cc2c1C(=O)c1ccc(OC)cc1 | 170 |
| COc1ccc(C(=O)N2CCCC2=O)cc1O | 123 to 125 |
| Cc1cc(=O)c(O)c(C(C)O)o1 (configuration not stated) | 127 to 130 |
| CC1CCc2nc(=O)c(-c3ccccc3)cn21 (configuration not stated) | 178 |

Further lines, results first:

| melting point [°C] | Structure (SMILES) |
| --- | --- |
| > 350 | O=C(O)Cc1cc2c([N+](=O)[O-])c(O)c(O)cc2oc1=O |
| 180 to 182 | CC(=O)NC[C@H]1CN(c2ccc(N3CCC(C)(O)CC3)c(F)c2)C(=O)O1 |
| 136 | CCOC(=O)C(NC(=O)c1cnc2cccc(C)n2c1=O)C(C)C (configuration not stated) |
| 167 to 173 | CSc1nc(-c2cc(NC(=O)c3ccc(C)c(F)c3)ccc2C)c2c(n1)N(c1c(F)cccc1F)C(=O)NC2 |
| 249 to 251 | N#Cc1ncn2c1[C@@H]1CCCN1C(=O)c1sccc1-2 |
| 118 to 120 | COc1cccc(NC(=O)C(C)(C)C)c1CCO |
| 78 to 79 | FC(F)(F)c1cc(NCc2ccsc2)cc(C(F)(F)F)c1Br |
| 253 to 254 | COc1cc(C(=O)NS(=O)(=O)c2ccccc2)ccc1Cc1csc2ccc(NC(=O)OC3CCCC3)cc12 |
| 195 to 197 | NS(=O)(=O)c1ccc(-n2nc(NC(=O)Nc3cccc(C(F)(F)F)c3)cc2-c2ccccc2)cc1 |
| 217 to 218 | O=C(N1CCCN(C(=O)C(F)(F)F)CCN(C(=O)C(F)(F)F)CCCN(C(=O)C(F)(F)F)CC1)C(F)(F)F |
| 252 to 255 | CCOC(=O)c1nc2cc(NC(=O)c3c(C(=O)N4CCC4)cnn3C)ccn2n1 |
| 129 to 130 | COc1nc(C(=O)N(C)Cc2cc(C(F)(F)F)cc(C(F)(F)F)c2)c(-c2ccccc2)c2ccccc12 |
| 144 | CN(C)Cc1ccc(/C=C/C(=O)O)cn1 |
| 83 to 84 | CCOC(=O)C(c1ccc(CN2CCOCC2)cn1)c1cc(C#N)ccc1[N+](=O)[O-] (configuration not stated) |
| > 240 | O=c1oc(-c2ccccc2)cc(O)c1Sc1c(O)cc(-c2ccccc2)oc1=O |
| 69 to 74 | N=C(N)N(CCCC(C=O)NC(=O)CNC(=O)CCc1ccccc1)C(=O)OCc1ccccc1 (configuration not stated) |
